Results published in article PMC8742647 (Clinical and Translational Science, 2021).
Read-outs that look alike come from different tables or passages of the source.

Key:
[1] = total clearance after intravenous administration to PXB-mice; format: in vivo, PXB‐mice (chimeric mice with humanized livers); conditions: intravenous cassette dose 0.1 mg/kg, N = 3, noncompartmental analysis
[2] = total clearance after intravenous administration to rats; format: in vivo, Sprague–Dawley rats; conditions: intravenous cassette dose 0.1 mg/kg, N = 3
[3] = prediction of CLt,human by single-species allometric scaling from PXB-mice; set-up: species or system humans; conditions: for Predicted CLt,human, PXB‐SSS: scaled from CLt in PXB-mice, exponent 0.75; for Fold error (predicted/observed), PXB‐SSS: predicted/observed CLt,human
[4] = prediction of CLt,human by physiologically based scaling using PXB-mice; set-up: species or system humans; conditions: for Predicted CLt,human, PXB‐PBS: from CLt in PXB-mice, dispersion model, CLint per hepatocyte assumed equal; for Fold error (predicted/observed), PXB‐PBS: predicted/observed CLt,human
[5] = blood‐to‐plasma concentration ratio, ref Table S1; cited from earlier work
[6] = ref Table S1; cited from earlier work
[7] = ref Table S1; cited from earlier work; remark: listed apart in the source
[8] = humans; ref Table S1; cited from earlier work
[9] = prediction of CLt,human by multispecies allometric scaling, rule of exponent; conditions: for Predicted CLt,human, ROE: from CLt in rats, monkeys and dogs; for Fold error (predicted/observed), ROE: predicted/observed CLt,human
[10] = tested on: cryopreserved human hepatocytes; assay: in vitro metabolic stability assay using cryopreserved human hepatocytes; conditions: for turnover during a 4‐h incubation in the human hepatocyte assay: criterion for low‐CLint compounds: no significant turnover (<20%); for % remaining after a 4‐h incubation: cryopreserved human hepatocytes, 0.5 million cells/ml, 0.1 or 1 µmol/l; for CLint per hepatocyte, Humans: in vitro, human hepatocytes, corrected with fraction unbound in hepatocytes and medium
[11] = for Predicted CLt,human, FCIM: from CLt in rats, monkeys and dogs and fu,p ratio rat/human; for Fold error (predicted/observed), FCIM: predicted/observed CLt,human
[12] = fraction unbound in plasma, equilibrium dialysis; format: in vitro ADME, humans; conditions: fraction unbound in human plasma
[13] = fraction unbound in rat plasma; ref Table S1; cited from earlier work
[14] = prediction of CLt,human by in vitro–in vivo extrapolation; set-up: species or system humans; conditions: for Predicted CLt,human, IVIVE: from in vitro CLint per human hepatocyte, dispersion model
[15] = ref Table S1; cited from earlier work; remark: listed apart in the source
[16] = total clearance after intravenous administration to monkeys; format: in vivo, cynomolgus monkeys; conditions: intravenous cassette dose 0.1 mg/kg, N = 3

| SMILES | CLt, PXB‐mice [1] [mL/min/kg] | CLt, Rats [2] [mL/min/kg] | Predicted CLt,human, PXB‐SSS [3] [mL/min/kg] | Predicted CLt,human, PXB‐PBS [4] [mL/min/kg] | R b, Humans [5] | CLt, Monkeys [6] [mL/min/kg] | CLt, Dogs [7] [mL/min/kg] | Observed CLt,human [8] [mL/min/kg] | Predicted CLt,human, ROE [9] [mL/min/kg] | turnover during a 4‐h incubation in the human hepatocyte assay [10] [%] | Predicted CLt,human, FCIM [11] [mL/min/kg] | f u,p, Humans [12] | f u,p, Rats [13] | Predicted CLt,human, IVIVE [14] [mL/min/kg] | CLint per hepatocyte, Humans [10] [µl/min/1 × 10^6 cells] | other results |
| --- | --- | --- | --- | --- | --- | --- | --- | --- | --- | --- | --- | --- | --- | --- | --- | --- |
| COc1ccc2cc([C@H](C)C(=O)O)ccc2c1 [(S)‐Naproxen] | 0.556 | 0.41 | 0.072 | 0.085 | 0.55 | 0.83 | 0.04 | 0.11 | 0.051 |  |  |  |  |  |  |  |
| CC(=O)C[C@@H](c1ccccc1)c1c(O)c2ccccc2oc1=O [(S)‐Warfarin] | 0.484 | 0.21 | 0.062 | 0.074 | 0.55 |  |  | 0.055 | 0.417 | < 20 | 0.330 |  |  |  |  | % remaining after a 4‐h incubation [10]: 80%; discrepancy between observed and predicted CLt,human, ROE approach [9]: more than 3 fold; discrepancy between observed and predicted CLt,human, FCIM approach [11]: more than 3 fold |
| Cc1cc(=O)n(-c2ccccc2)n1C [Antipyrine] | 4.60 | 7.86 | 0.59 | 0.71 | 1 | 11.5 | 7.22 | 0.64 | 3.32 | < 20 | 3.31 | 0.990 | 0.690 |  |  | Fold error (predicted/observed), PXB‐SSS [3]: 0.92; Fold error (predicted/observed), PXB‐PBS [4]: 1.10; discrepancy between observed and predicted CLt,human, ROE approach [9]: more than 3 fold; Fold error (predicted/observed), ROE [9]: 5.19; discrepancy between observed and predicted CLt,human, FCIM approach [11]: more than 3 fold; Fold error (predicted/observed), FCIM [11]: 5.17 |
| COc1ccccc1Oc1c(NS(=O)(=O)c2ccc(C(C)(C)C)cc2)nc(-c2ncccn2)nc1OCCO [Bosentan] | 8.78 |  | 1.18 | 1.39 | 0.48 | 20.6 | 1.72 | 2.1 | 1.68 |  | 5.37 |  |  | 0.68 | 12.3 | CLt, Rats [15]: 16.40 mL/min/kg |
| Nc1ccc(S(=O)(=O)c2ccc(N)cc2)cc1 [Dapsone] | 4.40 | 6.87 | 0.60 | 0.67 |  |  |  |  | 0.91 | < 20 | 2.01 | 0.381 |  |  |  |  |
| CN1C(=O)CN=C(c2ccccc2)c2cc(Cl)ccc21 [Diazepam] | 42.147 |  | 5.68 | 7.52 | 0.71 | 17.90 | 46.71 | 0.38 | 12.46 |  | 2.53 |  |  | 0.69 |  | CLt, Rats [15]: 61.51 mL/min/kg |
| CC(C)N(CCC(C(N)=O)(c1ccccc1)c1ccccn1)C(C)C (centres unmarked) [Disopyramide] | 28.86 | 179.46 | 3.72 | 4.63 | 1.2 | 19 | 29 | 0.9 | 7.36 |  |  | 0.161 | 0.610 | 1.24 | 3.2 |  |
| COc1cc2nc(N3CCN(C(=O)C4COc5ccccc5O4)CC3)nc(N)c2cc1OC (centres unmarked) [Doxazosin] | 34.245 |  | 4.61 | 5.65 |  |  |  |  | 3.93 |  | 6.20 | 0.066 |  | 5.62 | 41.5 |  |
| CNC(=C[N+](=O)[O-])NCCSCc1ccc(CN(C)C)o1 [Ranitidine] | 131.02 | 99.88 | 16.9 | 16.4 |  |  |  |  | 5.4 |  | 11.1 | 1.000 | 0.900 |  |  |  |
| CCOc1ccccc1OC(c1ccccc1)C1CNCCO1 (centres unmarked) [Reboxetine] |  |  | 2.39 | 2.79 |  | 14.94 | 22.39 | 0.82 | 9.52 |  | 1.82 |  |  | 1.37 | 13.9 | CLt, Rats [15]: 61.51 mL/min/kg |
| CN1C(C(=O)Nc2ccccn2)=C(O)c2sccc2S1(=O)=O [Tenoxicam] | 0.2878 | 0.49 | 0.039 | 0.044 | 0.67 |  | 0.104 | 0.03 | 0.029 | < 20 | 0.085 | 0.015 | 0.030 |  |  | CLt, Monkeys [16]: 0.061 mL/min/kg; Fold error (predicted/observed), PXB‐SSS [3]: 1.29; Fold error (predicted/observed), PXB‐PBS [4]: 1.46; discrepancy between observed and predicted CLt,human, ROE approach [9]: more than 3 fold; Fold error (predicted/observed), ROE [9]: 0.98; discrepancy between observed and predicted CLt,human, FCIM approach [11]: more than 3 fold; Fold error (predicted/observed), FCIM [11]: 2.83 |
| Cn1c(=O)c2[nH]cnc2n(C)c1=O [Theophylline] | 4.70 | 1.91 | 0.60 | 0.72 | 0.85 | 1.08 | 1.73 |  | 0.68 | < 20 |  |  |  |  |  |  |
| CC(C)(C)NC[C@H](O)COc1nsnc1N1CCOCC1 [Timolol] | 130.05 | 137.02 | 16.8 | 13.7 | 0.84 | 13.6 |  | 8.5 |  | < 20 |  | 0.715 | 0.760 |  |  | Fold error (predicted/observed), PXB‐SSS [3]: 1.98; Fold error (predicted/observed), PXB‐PBS [4]: 1.62 |
| CCCCNC(=O)NS(=O)(=O)c1ccc(C)cc1 [Tolbutamide] | 0.58 | 0.39 | 0.074 | 0.088 |  |  |  |  | 0.040 | < 20 |  |  |  |  |  | CLt, Monkeys [16]: 0.0456 mL/min/kg |
| CN[C@@H]1C[C@H]2O[C@@](C)([C@@H]1OC)n1c3ccccc3c3c4c(c5c6ccccc6n2c5c31)C(=O)N[C@H]4O [UCN−01, 7‐hydroxystaurosporine] | 0.0369 | 77.37 | 0.0050 | 0.0056 |  |  | 10.27 | 0.0037 | 1.5640 |  | 1.3765 | 0.003 | 0.0175 | 0.6186 | 83.5 | CLt, Monkeys [16]: 3.36 mL/min/kg; Fold error (predicted/observed), PXB‐SSS [3]: 1.35; Fold error (predicted/observed), PXB‐PBS [4]: 1.52; Fold error (predicted/observed), IVIVE ([14]; predicted/observed CLt,human): 167.20; % remaining after a 4‐h incubation [10]: 4%; Fold error (predicted/observed), ROE [9]: 422.70; Fold error (predicted/observed), FCIM [11]: 372.03 |
